Values of other authors, collected in patent US10912471B2, “System and method for automatic perfusion measurement” (priority 2018, dated 2021).

What was measured:
plasma proteins = conditions: becomes confined to the vascular system
[1] = administration not without risks, e.g. during pregnancy

binding to plasma proteins (plasma proteins): binds tightly to plasma proteins
SMILES: CC1(C)C(/C=C/C=C/C=C/C=C2\N(CCCCS(=O)(=O)O)c3ccc4ccccc4c3C2(C)C)=[N+](CCCCS(=O)(=O)[O-])c2ccc3ccccc3c21 [ICG, Indocyanine green]
toxicity classification [1]: low
